Results: patent US20140256663A1, “Amphotericin Analogous Compounds and Pharmaceutical Compositions Containing Them” (CENTRO DE INVESTIGACION Y DE ESTUDIOS AVANZADOS DEL …, priority 2010, published 2014)

Assays:
[1] = system: Saccharomyces cerevisae FY833(SC) cells; assay: Viability of Saccharomyces cerevisae FY833 (SC) cells at various concentrations; format: cell-based; details: FIG. 1, various concentrations
Procedure: All derivatives were tested for antibiotic activity in yeast cultures of S. cerevisiae.

[2] = system: human renal cells 293Q (ATCC CLR-1573); assay: MTT cytotoxicity on human renal cells 293Q
Procedure: For cytotoxicity studies human kidney cells (ATCC No. CRL-1573) were used. The cells were cultured with Minimum Essential Medium (MEM) (GIBCO BRL), supplemented with 10% fetal bovine serum (FBS) (GIBCO BRL), 2 mM 1-glutamine (GIBCO BRL), 1.5 gL Na2HCO3 (Sigma Chemical Co), 0.1 mM nonessential amino acids (Sigma Chemical Co), and 1 mM sodium pyruvate (In vitro, S.A.). The technique of bromide of 3(4,5-dimethylthiazol-2-yl)-2,5-diphenyl tetrazolium (MTT) (Sigma Chemical Co) was applied; a technique which is based on the conversion of dye to an insoluble precipitate called formazan. This test is used as an indicator of mitochondrial function in living cells that measures the metabolic capacity in cells and serves as an indicator of cytotoxicity. […] (Mosman […], Immunol Methods, 65: 55-63). The cytoxicity test consisted of planting 10,000 cells per well in 96-well plates (Corning Incorporated Costar) in MEM and incubate them (Nuaire us autoflow CO2 water-jacketed incubator) during 24 h at 37° C. and 5% CO2. […] After incubation, cells were treated and incubated anew for 24 h. After this time the medium was aspirated carefully and replaced with 200 μL of fresh medium, and 50 μL of MTT was added for a total volume of 250 μl. They were then incubated for 4 hours in the above conditions. After that time the medium with MTT was carefully removed and 200 μL of DMSO and 25 μL of Sorensen buffer (0.1 M glycine+0.1 M NaCl at pH 10.5) were added to each well. The plate was then mixed until the formazan crystals dissolved, and it was finally read in a plate reader (Microplate Limaning System Ultramark, Biorad) at a wavelength of 550 nm.
For the tests, we used human renal ephythelial cells (293Q) (ATCC Catalog No. CRL-1573). The cells were cultured with Minimum Essential Medium (MEM) (GIBCO BRL) supplemented with 10% fetal bovine serum (FBS) (GIBCO BRL), 2 mM L-glutamine (GIBCO BRL), 1.5 g/L Na2HCO3 (Sigma Chemical Co), 0.1 mM nonessential amino acids (Sigma Chemical Co), and 1 mM sodium pyruvate (In vitro, S.A.). For cytoxicity tests, we applied the technique of bromide 3(4,5-dimethylthiazol-2-yl)-2,5-diphenyl tetrazolium (MTT) (Sigma Chemical Co), which is based on the conversion of the dye to an insoluble precipitate called formazan. This test is used as an indicator of mitochondrial function in living cells which measures the metabolic capacity in cells and serves as an indicator of cytotoxicity. (Wang, H. Z., Chang, C. H., Lin, C. P., Tsai, M. C). Using MTT viability assay to test the cytotoxicity of antibiotics and steroid to cultured porcine corneal endothelial cells. J. Ocul. Pharmacol. Ther. 1996; 12: 35-43). For the essay 10,000 cells were seeded per well in 96-well plates (Corning Incorporated Costar) in the medium already indicated and incubated for 24 h at 37° C. and 5% CO2. […] After incubation, cells were treated and incubated again for 24 h. The medium was carefully aspirated and replaced with 200 μl fresh medium, adding 50 μl MTT solution for a total volume of 250 μl. They were then incubated for 4 hours in the above conditions. The medium was carefully removed with MTT and 200 μl DMSO and 25 μl Sorense buffer (0.1 M glycine+0.1 M NaCl at pH 10.5) was added to each well. Then the plate was mixed until the formazan crystals dissolved; it was finally read in a reader plate (Microplate Limaning System Ultramark, Biorad) at a wavelength of 550 nm.

[3] = Unit channel studies in chicken egg lecithin bilayers with cholesterol
Procedure: The activity is determined by the presence of the different channels formed by polyenes in the lipid bilayer (Cotero, et al., supra; Venegas, et al., supra). […] These values were determined by the technique of unit channel delineated above.
Unit channel studies were performed according to procedures described earlier (Cotero, et al., supra, Venegas, et al., supra). Required liposomal suspensions were prepared using lecithin with cholesterol or ergosterol. These suspensions were placed in an ultrasonic bath for 15 minutes to produce unilamellar vesicles. Subsequently, the suspension was placed in a 100 μl eppendorf and a lipid bilayer was formed on the tip of a micro-electrode. The unit channels of amphotericin and of the invented compounds were incorporated to this bilayer. The unit channel current of the various compounds was recorded with an electrometer, and then these records were analyzed by determining the activity of the compounds and the characteristics of the channels formed.
The activity is determined by the presence of the various channels formed by polyenes in the lipid bilayer (Cotero, et al., supra, Venegas, et al., supra). […] This conductance is the effect of all the channels present and was determined by the unit channel technique earlier described.

[4] = system: Candida albicans ATCC 752; assay: Antifungal activity in vitro by flow cytometry, Candida albicans ATCC 752; format: cell-based; details: ATCC752, 24 h at 37° C., read-out: CF50 Candida albicans ATCC 752
Procedure: (§1) The antifungal activity of the polyene macrolide derivate of the present invention was determined by flow cytometry method earlier described (Pinto et al., J. Medical Microbiology, 2009; 58, 1454-1462; Pina-Vaz and Rodriguez, Methods Mol. Biol. 2010; 638:281-289). For the test two strains of Candida albicans (ATCC 10231 and 752) and Candida kruzei were used. A cellular suspension of 1×10^6 UFC/mL was used, which has sown in 96-well plates. […] As controls were used: untreated yeasts (control of living cells), yeasts exposed to UV radiation (arrest, inhibition of proliferation), and yeasts exposed at temperature of 100° C. (dead yeasts). Cells were collected by centrifugation at 10,000×g for 10 min, they were washed once in phosphate buffer. […] of propidium iodide 0.1 mg/mL were added to the cell suspension. It was incubated during 30 minutes at room temperature and protected from light. Finally, the samples were analyzed by flow cytometry (Becton-Dickinson Facsc Calibur, laser argon 480 nm). The intrinsic parameters and fluorescence in the FL2 channel (yellow/orange fluorescence) for FUN and channel FL3 (red fluorescence, filter 630 nm) for propidium iodide were acquired and registered on a logarithmic scale for a minimum of 7500 events per sample. For data analysis, the quadrants were adjusted in a plot of data lines of fluorescence intensity of samples. […] These quadrants were used to quantify the percentile of cells showing altered fluorescence compared to drug-free controls.

[5] = system: Candida albicans ATCC 10231; assay: Antifungal activity in vitro by flow cytometry, Candida albicans ATCC 10231; format: cell-based; details: ATCC10231, 24 h at 37° C., read-out: CF50 Candida albicans ATCC 10231
Procedure: as §1

Candida kruzei = assay: Antifungal activity in vitro by flow cytometry, Candida kruzei; format: cell-based; details: 24 h at 37° C., read-out: CF50 Candida kruzei
Procedure: as §1

human erythrocytes = assay: Hemolytic assay on human erythrocytes; format: cell-based; details: 1 hour
Procedure: The hemotoxicity of the polyene macrolide derivative of the present invention was determined by measuring the toxicity to human erythrocytes (values HE50) using a method established by Cybulska, et al. (Cybulska, B., Borowski, E. and Gary-Bobo, M. Relationship between ionophoric and hemolytic activities of perimycin A and vacidin A, two polyene macrolide antifungal antibiotics. Biochem Pharmacol. 1989; 38(11): 1755-1762). For determining the haematoxicity 2 mL blood were obtained and placed in a tube with EDTA. The number of erythrocytes was counted in a Neubauer chamber, and 1×10^7 cells/mL were placed in test tubes. The erythrocytes were resuspended in 450 μL of KCl 150 mM+Tris 3 mM buffer. The erythrocytes were treated with concentrations of 0.01, 0.1, 1, 10 y 100 μM and incubated in a water bath for 1 hour. They were then centrifuged at 1500 rpm for 15 seconds; 150 μL were taken from the supernatant and placed in 96-well plates; the optical density of each group was measured using a plate reader at a wavelength of 550 nm. We included one tube with the drug solvent (DMSO 1%) as internal control. We also included one tube only with erythrocytes and 500 μl of buffer KCl 150 mM+Tris 3 mM, which we consider as a negative control group and a tube with 500 μl of red cells and 35 mM NaCl (positive control).

[6] = Recarrier K. thesis; cited from earlier work
[7] = 200 μM compound, 30 mol % cholesterol, 27° C.

Structure (SMILES)	inhibitory capacity / potency on SC cells compared to AmB [1]	collateral cytotoxicity on human renal cells 293Q compared to AmB ([2]; FIG. 2, FIG. 8)	DT50 CitE50 ([2]; human renal cells 293Q, 24 h) [µM]	Opening probability, channel type I [3, 7] [%]	Opening probability, channel type II [3, 7]	Opening probability, channel type III [3, 7]	Opening probability, channel type IV [3, 7]	Opening probability, channel type V [3, 7]	Opening probability, channel type VI [3, 7]	activity of transmembranal channels in the cholesterol membrane ([3]; in words, compared to AmB)	IC50 [4] [µM]	IC50 [5] [µM]	IC50 (Candida kruzei) [µM]	HE50 (Hemolysis 50) (human erythrocytes) [µM]	selectivity ergosterol versus cholesterol POPC membranes [6]
CC1OC(O[C@H]2/C=C/C=C/C=C/C=C/C=C/C=C/C=C/C(C)[C@@H](O)C(C)C(C)OC(=O)C[C@H](O)C[C@H](O)CC[C@@H](O)[C@H](O)C[C@H](O)C[C@]3(O)CC(O)[C@@H](C(=O)N(C(C)C)C(C)C)C(C2)O3)C(O)C(N)C1O (stereo partly drawn) [A-3, N-diisopropylamide of AmB]	low potency in fungal cells	low cytoxicity	180	<1	N.O.	N.O.	N.O.	N.O.	N.O.	more reduced presence of channels in membranes with cholesterol	> 100	> 50	> 100	53	
C[C@@H]1[C@H](O)[C@@H](C)/C=C/C=C/CC/C=C/C=C/C=C/C=C/C(O[C@H]2O[C@H](C)[C@@H](O)[C@H](N)[C@@H]2O)CC2O[C@](O)(CC(O)C(O)CCC(O)CC(O)CC(O)CC(=O)O[C@H]1C)CC(O)C2C(=O)O (stereo partly drawn) [nystatin]															much higher selectivity
